The values below come from US8999940B2 (Ipsen Pharma S.A.S., priority 2008, dated 2015).

Data set [1] can be described thus: Rat plasma half-life assay. It counts as in vitro ADME. The conditions noted are these: 37° C., LC-MS, read-out: Rat Plasma T½ (converted).
Data set [2] is described as follows: Human plasma half-life assay. It is filed as in vitro ADME. Conditions: 37° C., LC-MS, read-out: Human Plasma T½ (converted).
Data set [3] concerns the target T1, human recombinant GIP receptor (Homo sapiens, UniProt P48546).
T1 construct: expressed in transfected cells; host or cells: CHO-K1 clonal cells (membrane preparation)
T1 sequence (P48546 22-466): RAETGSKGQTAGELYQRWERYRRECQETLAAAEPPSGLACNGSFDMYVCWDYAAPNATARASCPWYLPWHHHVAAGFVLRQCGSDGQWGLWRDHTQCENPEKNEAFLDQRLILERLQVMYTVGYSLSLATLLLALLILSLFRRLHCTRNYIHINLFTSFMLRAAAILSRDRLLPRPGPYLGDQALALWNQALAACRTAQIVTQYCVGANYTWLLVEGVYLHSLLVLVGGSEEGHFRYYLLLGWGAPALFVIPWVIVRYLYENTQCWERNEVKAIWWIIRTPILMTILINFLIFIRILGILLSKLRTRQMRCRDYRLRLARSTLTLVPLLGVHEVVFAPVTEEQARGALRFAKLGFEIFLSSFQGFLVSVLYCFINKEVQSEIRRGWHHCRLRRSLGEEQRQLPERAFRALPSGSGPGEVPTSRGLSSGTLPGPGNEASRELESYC
Description: In vitro hGIP receptor binding assay. How it is done:
A. In Vitro hGIP Receptor Binding Assay […] The incubations were terminated by rapid filtration through GF/C filters (pre-soaked in 0.5% polyethylenimine) using a Brandel filtration manifold. Each tube and filter were then washed three times with 5-ml aliquots of ice-cold buffer.

Usually Ki stands for the dissociation constant of the complex between target and ligand, obtained from inhibition or displacement. For `CC[C@H](C)[C@H](NC(=O)[C@H](CCCCN)NC(=O)[C@H](CC(=O)O)NC(=O)[C@H](CCSC)NC(=O)[C@H](C)NC(=O)[C@@H](NC(=O)C1(NC(=O)[C@H](Cc2ccc(O)cc2)NC(=O)[C@H](CC(=O)O)NC(=O)[C@H](CO)NC(=O)[C@@H](NC(=O)[C@H](Cc2ccccc2)NC(=O)[C@@H](NC(=O)CNC(=O)[C@H](CCC(=O)O)NC(=O)C(C)(C)NC(=O)[C@@H](N)Cc2ccc(F)cc2)[C@@H](C)O)[C@@H](C)CC)CCCC1)[C@@H](C)CC)C(=O)N[C@@H](Cc1c[nH]cn1)C(=O)N[C@@H](CCC(N)=O)C(=O)N[C@@H](CCC(N)=O)C(=O)N[C@@H](CC(=O)O)C(=O)N[C@@H](Cc1ccccc1)C(=O)N[C@H](C(=O)N[C@@H](CC(N)=O)C(=O)N[C@@H](Cc1c[nH]c2ccccc12)C(=O)N[C@@H](CC(C)C)C(=O)N[C@@H](CC(C)C)C(=O)N[C@@H](C)C(=O)N[C@@H](CCC(N)=O)C(=O)N[C@@H](CCCCN)C(=O)NCC(=O)N[C@@H](CCCCN)C(=O)N[C@@H](CCCCN)C(=O)N[C@@H](CC(N)=O)C(=O)N[C@@H](CC(=O)O)C(=O)N[C@@H](Cc1c[nH]c2ccccc12)C(=O)N[C@@H](CCCCN)C(=O)N[C@@H](Cc1c[nH]cn1)C(=O)N[C@@H](CC(N)=O)C(=O)N[C@H](C(=O)NC1(C(=O)N[C@@H](CCC(N)=O)C(=O)O)CCCC1)[C@@H](C)CC)C(C)C` [Example 32, (4F-Phe^1, Aib^2, A5c^11, 41)hGIP(1-42)-OH], the half-life at 0.1 mg/ml was more than 61 h in data set [1] and 23.9 h in data set [2]. In data set [3], the Ki came to 5.82 nM.

In the case of `CC[C@H](C)[C@H](NC(=O)[C@H](CCCCN)NC(=O)[C@H](CC(=O)O)NC(=O)[C@H](CCSC)NC(=O)[C@H](C)NC(=O)[C@@H](NC(=O)C1(NC(=O)[C@H](Cc2ccc(O)cc2)NC(=O)[C@H](CC(=O)O)NC(=O)[C@H](CO)NC(=O)[C@@H](NC(=O)[C@H](Cc2ccccc2)NC(=O)[C@@H](NC(=O)CNC(=O)[C@H](CCC(=O)O)NC(=O)C(C)(C)NC(=O)[C@@H](N)Cc2ccncc2)[C@@H](C)O)[C@@H](C)CC)CCCC1)[C@@H](C)CC)C(=O)N[C@@H](Cc1c[nH]cn1)C(=O)N[C@@H](CCC(N)=O)C(=O)N[C@@H](CCC(N)=O)C(=O)N[C@@H](CC(=O)O)C(=O)N[C@@H](Cc1ccccc1)C(=O)N[C@H](C(=O)N[C@@H](CC(N)=O)C(=O)N[C@@H](Cc1c[nH]c2ccccc12)C(=O)N[C@@H](CC(C)C)C(=O)N[C@@H](CC(C)C)C(=O)N[C@@H](C)C(=O)N[C@@H](CCC(N)=O)C(=O)N[C@@H](CCCCN)C(=O)NCC(=O)N[C@@H](CCCCN)C(=O)N[C@@H](CCCCN)C(=O)N[C@@H](CC(N)=O)C(=O)N[C@@H](CC(=O)O)C(=O)N[C@@H](Cc1c[nH]c2ccccc12)C(=O)N[C@@H](CCCCN)C(=O)N[C@@H](Cc1c[nH]cn1)C(=O)N[C@@H](CC(N)=O)C(=O)N[C@H](C(=O)NC1(C(=O)N[C@@H](CCC(N)=O)C(=O)O)CCCC1)[C@@H](C)CC)C(C)C` [Example 33, (4-Pal^1, Aib^2, A5c^11, 41)hGIP(1-42)-OH], the results for the half-life at 0.1 mg/ml in data set [1] and in data set [2] were 15.5 h and 32.8 h, respectively. In addition, the Ki in data set [3] came to 8.14 nM.

Regarding `CC[C@H](C)[C@H](NC(=O)[C@H](CCCCN)NC(=O)[C@H](CC(=O)O)NC(=O)[C@H](CCSC)NC(=O)[C@H](C)NC(=O)[C@@H](NC(=O)C1(NC(=O)[C@H](Cc2ccc(O)cc2)NC(=O)[C@H](CC(=O)O)NC(=O)[C@H](CO)NC(=O)[C@@H](NC(=O)[C@H](Cc2ccccc2)NC(=O)[C@@H](NC(=O)CNC(=O)[C@H](CCC(=O)O)NC(=O)C(C)(C)NC(=O)[C@@H](N)Cc2cccnc2)[C@@H](C)O)[C@@H](C)CC)CCCC1)[C@@H](C)CC)C(=O)N[C@@H](Cc1c[nH]cn1)C(=O)N[C@@H](CCC(N)=O)C(=O)N[C@@H](CCC(N)=O)C(=O)N[C@@H](CC(=O)O)C(=O)N[C@@H](Cc1ccccc1)C(=O)N[C@H](C(=O)N[C@@H](CC(N)=O)C(=O)N[C@@H](Cc1c[nH]c2ccccc12)C(=O)N[C@@H](CC(C)C)C(=O)N[C@@H](CC(C)C)C(=O)N[C@@H](C)C(=O)N[C@@H](CCC(N)=O)C(=O)N[C@@H](CCCCN)C(=O)NCC(=O)N[C@@H](CCCCN)C(=O)N[C@@H](CCCCN)C(=O)N[C@@H](CC(N)=O)C(=O)N[C@@H](CC(=O)O)C(=O)N[C@@H](Cc1c[nH]c2ccccc12)C(=O)N[C@@H](CCCCN)C(=O)N[C@@H](Cc1c[nH]cn1)C(=O)N[C@@H](CC(N)=O)C(=O)N[C@H](C(=O)NC1(C(=O)N[C@@H](CCC(N)=O)C(=O)O)CCCC1)[C@@H](C)CC)C(C)C` [Example 34, (3-Pal^1, Aib^2, A5c^11, 41)hGIP(1-42)-OH], the half-life at 0.1 mg/ml in data set [1] was 16.3 h; in data set [2] it was more than 63 h. Besides, the Ki in data set [3] amounted to 9.75 nM.

`CC[C@H](C)[C@H](NC(=O)[C@H](CCCCN)NC(=O)[C@H](CC(=O)O)NC(=O)[C@H](CCSC)NC(=O)[C@H](C)NC(=O)[C@@H](NC(=O)C1(NC(=O)[C@H](Cc2ccc(O)cc2)NC(=O)[C@H](CC(=O)O)NC(=O)[C@H](CO)NC(=O)[C@@H](NC(=O)[C@H](Cc2ccccc2)NC(=O)[C@@H](NC(=O)CNC(=O)[C@H](CCC(=O)O)NC(=O)C(C)(C)NC(=O)[C@@H](N)Cc2cscn2)[C@@H](C)O)[C@@H](C)CC)CCCC1)[C@@H](C)CC)C(=O)N[C@@H](Cc1c[nH]cn1)C(=O)N[C@@H](CCC(N)=O)C(=O)N[C@@H](CCC(N)=O)C(=O)N[C@@H](CC(=O)O)C(=O)N[C@@H](Cc1ccccc1)C(=O)N[C@H](C(=O)N[C@@H](CC(N)=O)C(=O)N[C@@H](Cc1c[nH]c2ccccc12)C(=O)N[C@@H](CC(C)C)C(=O)N[C@@H](CC(C)C)C(=O)N[C@@H](C)C(=O)N[C@@H](CCC(N)=O)C(=O)N[C@@H](CCCCN)C(=O)NCC(=O)N[C@@H](CCCCN)C(=O)N[C@@H](CCCCN)C(=O)N[C@@H](CC(N)=O)C(=O)N[C@@H](CC(=O)O)C(=O)N[C@@H](Cc1c[nH]c2ccccc12)C(=O)N[C@@H](CCCCN)C(=O)N[C@@H](Cc1c[nH]cn1)C(=O)N[C@@H](CC(N)=O)C(=O)N[C@H](C(=O)NC1(C(=O)N[C@@H](CCC(N)=O)C(=O)O)CCCC1)[C@@H](C)CC)C(C)C` [Example 35, (Taz^1, Aib^2, A5c^11, 41)hGIP(1-42)-OH]: the half-life at 0.1 mg/ml in data set [1] was 50.6 h; in data set [2] it was 74.5 h. In addition, in data set [3], the Ki is 3.28 nM.

Regarding `CC[C@H](C)[C@H](NC(=O)[C@H](CCCCN)NC(=O)[C@H](CC(=O)O)NC(=O)[C@H](CCSC)NC(=O)[C@H](C)NC(=O)[C@@H](NC(=O)C1(NC(=O)[C@H](Cc2ccc(O)cc2)NC(=O)[C@H](CC(=O)O)NC(=O)[C@H](CO)NC(=O)[C@@H](NC(=O)[C@H](Cc2ccccc2)NC(=O)[C@@H](NC(=O)CNC(=O)[C@H](CCC(=O)O)NC(=O)C(C)(C)NC(=O)[C@@H](N)Cc2ccc(O)c([N+](=O)[O-])c2)[C@@H](C)O)[C@@H](C)CC)CCCC1)[C@@H](C)CC)C(=O)N[C@@H](Cc1c[nH]cn1)C(=O)N[C@@H](CCC(N)=O)C(=O)N[C@@H](CCC(N)=O)C(=O)N[C@@H](CC(=O)O)C(=O)N[C@@H](Cc1ccccc1)C(=O)N[C@H](C(=O)N[C@@H](CC(N)=O)C(=O)N[C@@H](Cc1c[nH]c2ccccc12)C(=O)N[C@@H](CC(C)C)C(=O)N[C@@H](CC(C)C)C(=O)N[C@@H](C)C(=O)N[C@@H](CCC(N)=O)C(=O)N[C@@H](CCCCN)C(=O)NCC(=O)N[C@@H](CCCCN)C(=O)N[C@@H](CCCCN)C(=O)N[C@@H](CC(N)=O)C(=O)N[C@@H](CC(=O)O)C(=O)N[C@@H](Cc1c[nH]c2ccccc12)C(=O)N[C@@H](CCCCN)C(=O)N[C@@H](Cc1c[nH]cn1)C(=O)N[C@@H](CC(N)=O)C(=O)N[C@H](C(=O)NC1(C(=O)N[C@@H](CCC(N)=O)C(=O)O)CCCC1)[C@@H](C)CC)C(C)C` [Example 36, (3NO2-Tyr^1, Aib^2, A5c^11, 41)hGIP(1-42)-OH], the half-life at 0.1 mg/ml in data set [1] is 11.7 h; in data set [2], more than 72 h. Besides, in data set [3], the Ki was determined as 11.2 nM.

Consider `CC[C@H](C)[C@H](NC(=O)[C@H](CCCCN)NC(=O)[C@H](CC(=O)O)NC(=O)[C@H](CCSC)NC(=O)[C@H](C)NC(=O)[C@@H](NC(=O)C1(NC(=O)[C@H](Cc2ccc(O)cc2)NC(=O)[C@H](CC(=O)O)NC(=O)[C@H](CO)NC(=O)[C@@H](NC(=O)[C@H](Cc2ccccc2)NC(=O)[C@@H](NC(=O)CNC(=O)[C@H](CCC(=O)O)NC(=O)C(C)(C)NC(=O)[C@@H](N)Cc2ccsc2)[C@@H](C)O)[C@@H](C)CC)CCCC1)[C@@H](C)CC)C(=O)N[C@@H](Cc1c[nH]cn1)C(=O)N[C@@H](CCC(N)=O)C(=O)N[C@@H](CCC(N)=O)C(=O)N[C@@H](CC(=O)O)C(=O)N[C@@H](Cc1ccccc1)C(=O)N[C@H](C(=O)N[C@@H](CC(N)=O)C(=O)N[C@@H](Cc1c[nH]c2ccccc12)C(=O)N[C@@H](CC(C)C)C(=O)N[C@@H](CC(C)C)C(=O)N[C@@H](C)C(=O)N[C@@H](CCC(N)=O)C(=O)N[C@@H](CCCCN)C(=O)NCC(=O)N[C@@H](CCCCN)C(=O)N[C@@H](CCCCN)C(=O)N[C@@H](CC(N)=O)C(=O)N[C@@H](CC(=O)O)C(=O)N[C@@H](Cc1c[nH]c2ccccc12)C(=O)N[C@@H](CCCCN)C(=O)N[C@@H](Cc1c[nH]cn1)C(=O)N[C@@H](CC(N)=O)C(=O)N[C@H](C(=O)NC1(C(=O)N[C@@H](CCC(N)=O)C(=O)O)CCCC1)[C@@H](C)CC)C(C)C` [Example 37, (3Thi^1, Aib^2, A5c^11, 41)hGIP(1-42)-OH], for which the half-life at 0.1 mg/ml was more than 72 h in data set [1] and 29.3 h in data set [2]. In data set [3], the Ki was determined as 7.05 nM.
